Results taken from article PMC13095408, “DBeQ derivative targets vacuolar protein sorting 4 functions in cancer cells and suppresses tumor growth in mice” (The Journal of Pharmacology and Experimental Therapeutics, 2025).

Assays:
[1] = system: i-shVPS4A-expressing crVPS4B U2OS cells; experiment: VPS4 synthetic cell death in i-shVPS4A-expressing crVPS4B cells (YOYO-3); format: cell-based; settings: 1 μg/mL Dox; 20 μM z-VAD-fmk, 50 μM z-IETD-fmk
Experimental: To measure caspase activity, cells cultured in white opaque-bottom 384-well plates were incubated in the presence or absence of 1 μg/mL Dox for 24 hours. Caspase-Glo 8 or 3/7 reagent was then added 1:1 and allowed to incubate for 90 minutes at RT followed by luminescence measurement using the CLARIOstar microplate reader (BMG LABTECH). Signals had background luminescence subtracted and then normalized to the respective Dox-untreated i-GFP-expressing parental controls to obtain relative CASP8-like LETDase or CASP3/7-like DEVDase activities. For live-cell quantification, the cells seeded on black clear-bottom 96-well plates were incubated with the indicated compounds (0.1% to 0.3% DMSO final) in the presence of 100 nM YOYO-3, a cell-impermeant DNA-binding fluorescent probe that stains membrane integrity-impaired, dead cells. […] Phase and fluorescence images were obtained at the indicated intervals using the IncuCyte S3 Live-Cell Analysis System (Essen BioScience; 10× objective) and then analyzed using the Cell-by-Cell Analysis module (Essen BioScience; 9600-0031) of IncuCyte S3 Software (Essen BioScience; Version 2019B Rev2). To quantify the percentage of dead GFP-expressing cells, the GFP and YOYO-3 double-positive cell population was divided by the total GFP-positive cell population. […]

VPS4B [2] = target: T1, VPS4B (Homo sapiens, UniProt O75351); experiment: VPS4B ATPase activity, EnzChek Phosphate assay; format: biochemical; parameters: His tag (pET28a vector-encoded) (N); made in house; host or cells: Escherichia coli BL21(DE3)
T1 sequence (O75351 1-444): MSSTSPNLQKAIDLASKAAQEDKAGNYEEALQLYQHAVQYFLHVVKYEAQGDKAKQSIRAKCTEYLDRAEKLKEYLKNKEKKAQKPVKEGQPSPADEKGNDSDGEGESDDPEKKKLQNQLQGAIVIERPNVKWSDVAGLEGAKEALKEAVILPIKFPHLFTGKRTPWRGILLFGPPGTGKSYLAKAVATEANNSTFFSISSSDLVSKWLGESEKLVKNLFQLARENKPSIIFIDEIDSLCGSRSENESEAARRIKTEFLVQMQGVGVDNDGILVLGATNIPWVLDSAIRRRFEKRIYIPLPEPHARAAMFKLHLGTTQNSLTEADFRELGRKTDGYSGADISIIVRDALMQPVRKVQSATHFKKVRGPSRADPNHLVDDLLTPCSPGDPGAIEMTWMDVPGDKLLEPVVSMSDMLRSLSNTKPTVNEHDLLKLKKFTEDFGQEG
How it was run: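 EnzChek phosphate release (MESG/PNP, 360 nm) with ATPases at 1 μM (diluted stock) in HEPES pH 7.4 buffers with MgCl2, CaCl2, DTT, BSA, Triton; 30 min compound preincubation at RT, started with MgATP, read 20 min at 37 °C. Activity from 5-min linear initial rate, normalized to DMSO; IC50 from Hill slope −1 fit.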

[3] = system: GFP-CHMP4B-expressing U2OS cells; experiment: GFP-CHMP4B accumulation cell-based assay (high-content microscopy)
How it was run: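 GFP-CHMP4B U2OS cells were cultured overnight, stained, then treated in SM with compounds (0.1% DMSO or 0.1% DMSO/0.1% ethanol vehicle final). High-content imaging used a 20× NA .70 objective at set intervals, ≥300 cells/well over 3 fields/well.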

U2OS cells = experiment: Immunoblot analysis of VPS4- and VCP-mediated pathways (autophagy, ER stress, ERAD); format: cell-based; settings: 5 μM DBeQ, 0.6 μM CB-5083, 1 μM 4-107, complete media
Experimental: Whole-cell lysates were prepared in radio-immunoprecipitation buffer (25 mM Tris-HCl, pH 8.0, 150 mM NaCl, 1 mM EDTA, 1% v/v IGEPAL CA-630, 0.5% w/v sodium deoxycholate, and 1% v/v SDS) containing protease (1:250) and phosphatase inhibitor cocktails (1:100) then resolved via SDS-PAGE and probed with the indicated antibodies. Signals were acquired with the Odyssey CLx (LI-COR) for fluorescence or Odyssey XF (LI-COR) for chemiluminescence detection and visualized in Image Studio version 6 (LI-COR).
VPS4 is essential for autophagy and loss of VPS4 function inhibits autophagic flux ([Takahashi et al, 2018]; [Zhen et al, 2019]). Meanwhile, VCP is required for endoplasmic reticulum-associated degradation (ERAD; [Rabinovich et al, 2002]) where VCP inhibition results in the accumulation of ubiquitinated proteins and induction of ER stress ([Weihl et al, 2006]; [Bastola et al, 2016]).

recombinant human VCP [4] = target: T2, recombinant human VCP; experiment: VCP ATPase activity, EnzChek Phosphate assay; format: biochemical; settings: 0.5 μM enzyme
T2 construct: His (N); host or cells: Escherichia coli BL21(DE3)
Experimental: (§1) VPS4B and VCP ATPase activities were measured using the EnzChek Phosphate assay for the quantification of released phosphate. Assay buffers were based on literature precedents ([Cupido et al, 2019], [2021]) as follows: VPS4B buffer (20 mM HEPES-KOH, pH 7.4, 25 mM KOAc, 2 mM MgCl2, 5 mM (NH4)2SO4, 0.5 mM CaCl2, 2.5 mM DTT, 0.1 mg/mL BSA, 0.005% v/v Triton X-100), VCP buffer (20 mM HEPES-NaOH, pH 7.4, 20 mM NaCl, 10 mM MgCl2, 5 mM (NH4)2SO4, 0.5 mM CaCl2, 2.5 mM DTT, 0.1 mg/mL BSA, 0.005% v/v Triton X-100). In black clear-bottom 384-well plates, 22.5 μL of 5% DMSO or 40× test compounds diluted in the respective assay buffer was added to each well. ATPases were diluted to 1 μM in the respective buffers containing 2× EnzChek Phosphate assay coupling reagents of 400 μM MESG and 2 U of PNP, then 25 μL was added to each well. Plates were mixed at 1000 rpm for 30 minutes at RT while being protected from light. The reaction was initiated by adding 2.5 μL of 20 mM MgATP or water followed by mixing at 1200 rpm for 30 seconds at RT. Plates were measured at 360 nm using a CLARIOstar plate reader (BMG LABTECH) for 20 minutes at 37 °C. ATPase activity was calculated as the amount of phosphate released over a 5-minute interval under linear initial velocity conditions. The remaining ATPase activity was calculated by normalizing compound-treated activity values to the DMSO control. IC50 was calculated by fitting normalized values to a sigmoidal dose-response curve with Hill slope = −1 using Graph Pad Prism 10.0.
(§2) To identify VPS4i, we developed enzyme- and cell-based VPS4 functional assays to serve as VPS4i-screening platforms. For the enzyme-based assay, we used the colorimetric EnzChek Phosphate assay that detects free phosphate with the advantage of continuous measurement of ATP hydrolysis over time. […] Due to the high sequence and structural similarity of AAA-ATPases, we also established a VCP ATPase assay to evaluate hit selectivity. […] For the cell-based assay, our approach was based on how VPS4 inhibition causes the accumulation of ESCRT-III ([Babst et al, 1998]; [Katoh et al, 2003]). We used an N-terminal GFP-tagged CHMP4B reporter system because it is the most abundant ESCRT-III subunit ([Katoh et al, 2004]; [Teis et al, 2008]). Our aim was to test compounds under short-term serum and amino acid starvation to stimulate ESCRT activity for easier detection of inhibitors ([Takahashi et al, 2018], [2019]). […] Overall, we established 2 systems for VPS4i screening, a VPS4B ATPase activity assay and a GFP-CHMP4B accumulation cell-based assay.

recombinant human VCP [5] = target: T3, recombinant human VCP (Rattus norvegicus, UniProt P46462); experiment: VCP ATPase activity, EnzChek Phosphate assay; format: biochemical; settings: screened at 5 µM; mean ± S.D., Supplemental Table 2
T3 construct: His (N); host or cells: Escherichia coli BL21(DE3)
Experimental: as §1, §2

VPS4B [6] = target: T1, VPS4B; experiment: VPS4B cellular thermal shift assay (CETSA); format: cell-based; parameters: endogenous in cells; host or cells: U2OS; settings: 5 μM DBeQ, 1 hour, starved U2OS cells
Experimental: The VPS4B CETSA was performed as previously described with modification ([Jafari et al, 2014]). In 10-cm dishes, near-confluent U2OS cells were rinsed with 1× DPBS and treated with the indicated compounds in acclimatized SM for 1 hour at 37 °C (0.1% DMSO). Cells were trypsinized, pelleted at 300 × g for 5 minutes, and washed with 1× PBS. After repeat pelleting at 300 × g for 5 minutes, the cells were resuspended in 1× PBS with protease inhibitor cocktail (1:250) and aliquoted into PCR strips with 20 μL per tube. PCR strips for each treatment were heated on a temperature gradient for 3 minutes using a thermal cycler (Bio-Rad Laboratories), followed by incubation at RT for 3 minutes. […] To normalize protein loading for SDS-PAGE, the soluble protein concentration of each 37 °C sample was quantified via the Pierce BCA assay ([…]), and a volume equal to 10 μg of protein was used for all samples from the same treatment. […] Signals were acquired with the Odyssey CLx (LI-COR) and quantified via densitometry using Image Studio version 6 (LI-COR). The remaining VPS4B levels were calculated by first obtaining the ratio of VPS4B:ACTB band intensities of each sample and then normalizing these ratios to that of the respective 37 °C sample. […]

T3 sequence (P46462 2-806 limits assumed): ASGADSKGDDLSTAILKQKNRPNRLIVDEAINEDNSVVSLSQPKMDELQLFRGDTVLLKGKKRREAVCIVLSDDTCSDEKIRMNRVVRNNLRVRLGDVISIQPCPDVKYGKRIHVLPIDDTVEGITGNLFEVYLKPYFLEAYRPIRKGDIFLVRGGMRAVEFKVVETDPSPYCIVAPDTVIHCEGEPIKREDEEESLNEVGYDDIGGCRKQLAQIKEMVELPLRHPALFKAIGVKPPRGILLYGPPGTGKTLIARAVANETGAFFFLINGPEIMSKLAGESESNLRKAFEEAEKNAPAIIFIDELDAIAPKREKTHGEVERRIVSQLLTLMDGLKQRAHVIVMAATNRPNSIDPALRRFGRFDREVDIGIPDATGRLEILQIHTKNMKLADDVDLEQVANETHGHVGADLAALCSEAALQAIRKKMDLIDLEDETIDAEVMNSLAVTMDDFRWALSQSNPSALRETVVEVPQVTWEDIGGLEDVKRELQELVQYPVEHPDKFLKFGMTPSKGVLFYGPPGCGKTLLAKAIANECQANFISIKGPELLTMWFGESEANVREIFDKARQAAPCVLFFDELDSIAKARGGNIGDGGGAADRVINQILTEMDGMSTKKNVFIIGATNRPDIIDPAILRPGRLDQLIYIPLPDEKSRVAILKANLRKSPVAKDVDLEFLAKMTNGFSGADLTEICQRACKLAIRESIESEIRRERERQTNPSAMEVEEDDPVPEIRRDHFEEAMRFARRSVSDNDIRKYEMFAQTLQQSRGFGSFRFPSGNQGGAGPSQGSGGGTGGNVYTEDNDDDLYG
T2 sequence (P46462 2-806 limits assumed): as above

Molecule | rescue of VPS4 synthetic cell death [1] | IC50 (VPS4B [2]; 0.5 μM enzyme) [µM] | VPS4B ATPase (% DMSO) (VPS4B [2]; remaining ATPase activity, screened at 5 μM, mean ± SD, Table 1) | VPS4B ATPase (% DMSO) (VPS4B [2]; screened at 5 µM, mean ± S.D., Supplemental Table 2) | accumulation of GFP-CHMP4B ([3]; 2 and 5 μM DBeQ, starved cells, 2 hours) | GFP-CHMP4B (% 4-107) ([3]; screened at 1 µM, mean ± S.D., Supplemental Table 2) | GFP-CHMP4B (% 4-107) ([3]; screened at 1 μM, starvation media, 1 hour, foci intensity per cell normalized to 4-107, mean ± SD, Table 1) | ER stress (HSPA5, ATF4) (U2OS cells) | autophagy (SQSTM1, LC3-II) (U2OS cells) | IC50 (recombinant human VCP [4]) [µM] | VCP ATPase (% DMSO) (recombinant human VCP [5]) | change of VPS4B thermal stability (Tagg) (VPS4B [6])
z-VAD-fmk | partially rescued | – | – | – | – | – | – | – | – | – | – | –
z-IETD-fmk | partially rescued | – | – | – | – | – | – | – | – | – | – | –
c1ccc(CNc2nc(NCc3ccccc3)c3ccccc3n2)cc1 [DBeQ] | – | 3.9 ± 1.2 | 41.96 ± 7.53 | 41.96 ± 7.53 | dose-dependent accumulation of GFP-CHMP4B | 8.93 ± 3.51 | 8.93 ± 3.51 | mildly induced ER stress | time-dependently inhibited autophagy | 15.9 ± 4.9 | 74.64 ± 6.01 | subtle thermal destabilization of VPS4B that was not statistically significant
